{"source": "patent US8894993B2", "about": "“Mitochondria-targeted antioxidants” (Natreon Inc., priority 2006, dated 2014)", "format_in_all_cases": "in vivo, Swiss albino mice", "key": {"[1]": {"test_system": "Blood levels of ATP and energy related indices", "assay": "Blood ATP and energy related indices in mice after forced swimming stress", "method": "Swiss albino mice (20±2 g) were fed orally with—(a) 3,8-(OH)2-DBP and (b) 3-OH-DBP (each 25 mg/Kg b.w.), per day, for 7 days. In case of the controls, only vehicle (0.8% carboxymethyl cellulose in water) was administered for seven days of the experiment. The animals were subjected to ‘forced swimming’ for 30 minutes on the 7th day of the experiment [Pliakas, A. M., Carlson, R. R., Neve, R. L., Konradi, C., Nestler, E. J. and Carlezon, W. A. 2001. J. Neurosci., 21(18), 7397-7403]. Immediately after the swimming, blood was collected from all the animals for analysis of ATP and related nucleotides by HPLC [Smolenska, Z., Kaznowska, Z., Zarowny, D., Simmonds, H. A. and Smolenski, R. T. 1999. Rheumatology, 38, 997-1002; Komarova, S. V., Mosharov, E. V., Vitvitsky, V. M. and Ataullakhanov, F. I. 1999. Blood Cell Mol. Dis., 25(13), 170-179; Marquardt, D. L., Gruber, H. E. and Wasserman, S. I. 1984. Proc. Natl. Acad. Sci., 81, 6192-6196]. AEC (adenylate energy charge) was calculated according to the method of Atkinson and Walton [Atkinson D E & Walton G M, Adenosine triphosphate conservation in metabolic regulation, J Biol Chem, 242 (1967) 3239] and TAN (total adenine nucleotides) was calculated according to an established method [Spencer M K & Katz A, Role of glycogen in control of glycolysis and IMP formation in human muscle during exercise, Am J Physiol, 260 (1991) E859]."}, "[2]": {"test_system": "Blood levels of ATP and energy related indices", "assay": "Blood ATP and energy related indices in mice after restraint stress", "settings": "25 mg/Kg p.o. 7 days", "method": "(§1) Swiss albino mice (20±2 g) were fed orally with—(a) 3-OH-DBP and (b) 3,8-(OH)2-DBP (each 25 mg/Kg b.w. per day, for 7 days). In case of the controls, only vehicle (0.8% carboxymethyl cellulose in water) was administered for seven days of the experiment. All the animals of all the groups were subjected to restraint stress (for 60 minutes) on the seventh day of the experiment, 2 hours after drug administration, according to a published method [Figueiredo, H. F., Bodie, B. L., Tauchi, M., Dolgas, C. M. and Herman, J. P. 2003. Endocrinology, 144, 5249-5258]. The model was selected in the present experiment, because restraint stress is a widely used model of acute oxidative stress. Immediately after being exposed to stress, the animals were sacrificed, blood was collected for analysis by HPLC of ATP and related nucleotides [Smolenska, Z., Kaznowska, Z., Zarowny, D., Simmonds, H. A. and Smolenski, R. T. 1999. Rheumatology, 38, 997-1002; Komarova, S. V., Mosharov, E. V., Vitvitsky, V. M. and Ataullakhanov, F. I. 1999. Blood Cell Mol. Dis., 25(13), 170-179; Marquardt, D. L., Gruber, H. E. and Wasserman, S. I. 1984. Proc. Natl. Acad. Sci., 81, 6192-6196], and liver was collected for measurement of superoxide dismutase and catalase activities [Zielinski, S, and Pörtner, H. 2000. Comparative Biochem. Physiol. Part B, 125, 147-[60]. AEC (adenylate energy charge) was calculated according to the method of Atkinson and Walton [Atkinson D E & Walton G M, Adenosine triphosphate conservation in metabolic regulation, J Biol Chem, 242 (1967) 3239] and TAN (total adenine nucleotides) was calculated according to an established method [Spencer M K & Katz A, Role of glycogen in control of glycolysis and IMP formation in human muscle during exercise, Am J Physiol, 260 (1991) E859]."}, "[3]": {"test_system": "Superoxide dismutase (SOD) activity in liver", "assay": "Superoxide dismutase activity in liver of mice after restraint stress", "settings": "25 mg/Kg p.o. 7 days, control 0.6", "method": "as §1, with “Rheumatology, 38, 997-1002; Komarova, S. V., Mosharov, E. V., Vitvitsky, V. M. and Ataullakhanov, F. I. 1999. Blood Cell Mol. Dis., 25(13), 170-179; Marquardt, D. L., Gruber, H. E. and Wasserman, S. I. 1984. Proc. Natl. Acad. Sci., 81, 6192-6196], and liver was collected for measurement of superoxide dismutase and catalase activities [Zielinski, S, and Pörtner, H. 2000. Comparative Biochem. Physiol. Part B, 125, 147-[60].” left out, “E859]. […]” for “E859].”"}, "[4]": {"test_system": "Catalase activity in liver", "assay": "Catalase activity in liver of mice after restraint stress", "settings": "25 mg/Kg p.o. 7 days, control 3.9", "method": "as §1, with “Rheumatology, 38, 997-1002; Komarova, S. V., Mosharov, E. V., Vitvitsky, V. M. and Ataullakhanov, F. I. 1999. Blood Cell Mol. Dis., 25(13), 170-179; Marquardt, D. L., Gruber, H. E. and Wasserman, S. I. 1984. Proc. Natl. Acad. Sci., 81, 6192-6196], and liver was collected for measurement of superoxide dismutase and catalase activities [Zielinski, S, and Pörtner, H. 2000. Comparative Biochem. Physiol. Part B, 125, 147-[60].” left out, “E859]. […]” for “E859].”"}}, "data": [{"compound": "O=c1oc2cc(O)ccc2c2ccccc12", "note": "[3-OH-DBP, 3-hydroxydibenzo-α-pyrone]", "values": [{"measurement": "content of ATP, AEC values and ATP/ADP ratio (in blood), in words", "setting": "[1]; albino mice engaged in forced swimming", "value": "significantly improved"}, {"measurement": "ATP", "setting": "[1]; blood, forced swimming, 25 mg/Kg p.o. 7 days, mean ± SEM of 6, control 0.60 ± 0.01", "value": "0.72 ± 0.03 µM"}, {"measurement": "TAN", "setting": "[1]; blood, forced swimming, 25 mg/Kg p.o. 7 days, mean ± SEM of 6, control 0.79 ± 0.01", "value": "0.90 ± 0.04", "unit": "µM"}, {"measurement": "AEC", "setting": "[1]; blood, forced swimming, 25 mg/Kg p.o. 7 days, mean ± SEM of 6, control 0.86 ± 0.003", "value": "0.89 ± 0.002"}, {"measurement": "ATP/ADP ratio", "setting": "[1]; blood, forced swimming, 25 mg/Kg p.o. 7 days, mean ± SEM of 6, control 3.84 ± 0.09", "value": "4.82 ± 0.09"}, {"measurement": "ADP", "setting": "[2]; mean ± SEM of 6, control 0.14 ± 0.02", "value": "0.09 ± 0.01", "unit": "µM"}, {"measurement": "ATP", "setting": "[2]; mean ± SEM of 6, control 0.67 ± 0.03", "value": "0.66 ± 0.04", "unit": "µM"}, {"measurement": "TAN", "setting": "[2]; mean ± SEM of 6, control 0.76 ± 0.03", "value": "0.79 ± 0.05 µM"}, {"measurement": "AEC", "setting": "[2]; mean ± SEM of 6, control 0.89 ± 0.01", "value": "0.90 ± 0.01"}, {"measurement": "ATP/ADP ratio", "setting": "[2]; mean ± SEM of 6, control 4.90 ± 0.32", "value": "7.04 ± 0.38"}, {"measurement": "SOD activity in liver", "setting": "[3]", "value": 0.91, "unit": "U/gm tissue"}, {"measurement": "Catalase activity in liver", "setting": "[4]", "value": 3.5, "unit": "U/mg tissue"}]}]}
